Measurements published in ChEMBL document CHEMBL4420068, “Samhd1 modulation for treating resistance to cancer therapy” (2018).
≈ marks a conversion by molar mass, not a printed value. Calls of active or inactive are those of the source. The rule behind the calls is not given here.

Assays:
HEL = test: Cytotoxic activity against human HEL cells assessed as reduction in cell viability at 10 to 50 ug/ml in presence of lentiviral protein X- virus-like particles incubated for 96 hrs by MTT assay; assay type: functional, cell-based
[1] = target: Deoxynucleoside triphosphate triphosphohydrolase SAMHD1 (Homo sapiens) (UniProt Q9Y3Z3); test: Substrate activity at SAMHD1 (unknown origin) expressed in bacterial system expressed in bacteria assessed as triphospho-hydolase activity by measuring cytarabine tri-phosphate […]
U-251 = test: Cytotoxic activity against human U251MG cells assessed as reduction in cell viability incubated for 96 hrs by MTT assay; assay type: functional, cell-based; conditions: U-251, 96 h
HL-60 = test: Cytotoxic activity against human HL60 cells assessed as reduction in cell viability at 10 to 50 ug/ml in presence of lentiviral protein X- virus-like particles incubated for 96 hrs by MTT assay; assay type: functional, cell-based
MOLM-13 = test: Cytotoxic activity against human MOLM13 cells assessed as reduction in cell viability at 10 to 50 ug/ml in presence of lentiviral protein X- virus-like particles incubated for 96 hrs by MTT assay; assay type: functional, cell-based
THP-1 [2] = test: Ratio of cytotoxic IC50 for human THP1 cells with constitutively expressing high SAMHD1 expression to cytotoxic IC50 for parental human THP1 cells expressing low SAMHD1 expression; assay type: functional
THP-1 [3] = test: Ratio of cytotoxic IC50 for human THP1 (+/+) cells expressing wild type SAMHD1 to cytotoxic IC50 for human THP1 cells with CRISP/CAS9 SAMHD1 knockout; assay type: functional

Deoxynucleoside triphosphate triphosphohydrolase SAMHD1 (Homo sapiens), sequence (Q9Y3Z3 whole entry): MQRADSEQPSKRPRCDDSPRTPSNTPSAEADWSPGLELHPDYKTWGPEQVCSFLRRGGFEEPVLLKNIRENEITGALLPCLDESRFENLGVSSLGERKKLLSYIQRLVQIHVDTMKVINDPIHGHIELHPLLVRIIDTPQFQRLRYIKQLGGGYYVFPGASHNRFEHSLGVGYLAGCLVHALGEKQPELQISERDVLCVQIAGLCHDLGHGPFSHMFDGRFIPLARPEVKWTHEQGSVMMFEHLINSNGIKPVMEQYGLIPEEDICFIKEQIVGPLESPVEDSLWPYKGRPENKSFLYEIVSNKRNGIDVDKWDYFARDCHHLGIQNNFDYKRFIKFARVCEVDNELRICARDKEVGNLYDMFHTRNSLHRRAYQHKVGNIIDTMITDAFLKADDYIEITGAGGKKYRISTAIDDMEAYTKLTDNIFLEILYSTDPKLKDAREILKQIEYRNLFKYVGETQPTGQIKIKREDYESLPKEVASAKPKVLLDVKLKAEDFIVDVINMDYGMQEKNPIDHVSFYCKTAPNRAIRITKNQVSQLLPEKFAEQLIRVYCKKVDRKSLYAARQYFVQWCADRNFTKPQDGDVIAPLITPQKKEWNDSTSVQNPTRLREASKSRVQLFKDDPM

Compound | Ratio IC50 (THP-1 [2]) | Ratio IC50 (THP-1 [3]) | also measured
Nc1ccn([C@@H]2O[C@H](CO)[C@@H](O)[C@@H]2O)c(=O)n1 [CYTARABINE] | – | – | Activity (HEL): Active; Activity [1]: Active; IC50 (U-251): 0.022 µg/mL (≈ 0.0905 µM); Activity (HL-60): Active; Activity (MOLM-13): Active
COc1cccc2c1C(=O)c1c(O)c3c(c(O)c1C2=O)C[C@@](O)(C(C)=O)C[C@@H]3O[C@H]1C[C@H](N)[C@H](O)[C@H](C)O1 [DAUNORUBICIN] | 1 | 1 | –
NC(=O)c1ncn([C@@H]2O[C@H](CO)[C@@H](O)[C@H]2O)n1 [RIBAVIRIN] | 0.5 | 0.5 | –
Nc1nc(Cl)nc2c1ncn2[C@H]1C[C@H](O)[C@@H](CO)O1 [CLADRIBINE] | 2 | 1 | –
Nc1ncn([C@H]2C[C@H](O)[C@@H](CO)O2)c(=O)n1 [DECITABINE] | 6 | 9 | –
Nc1nc(Cl)nc2c1ncn2[C@@H]1O[C@H](CO)[C@@H](O)[C@@H]1F [CLOFARABINE] | 11 | – | –
Nc1ccn([C@@H]2O[C@H](CO)[C@@H](O)C2(F)F)c(=O)n1 [GEMCITABINE] | 0.5 | 1 | –
COc1nc(N)nc2c1ncn2[C@@H]1O[C@H](CO)[C@@H](O)[C@@H]1O [NELARABINE] | 4 | – | –
Nc1nc(F)nc2c1ncn2[C@@H]1O[C@H](CO)[C@@H](O)[C@@H]1O [FLUDARABINE] | 6 | – | –
Nc1nc2[nH]cnc2c(=S)[nH]1 [THIOGUANINE] | 1 | 1 | Activity [1]: Active
